Test results reported in US7019029B2, “Skin whiteners containing hydroxytetronic acid derivatives” (priority 2000, dated 2006).

System: hyperpigmented skin areas of melasma patients
Experiment: Study in melasma patients: topical treatment of hyperpigmented skin areas
Format: in vivo, human
Conditions: oil-in-water emulsion containing about 10% compound, twice daily for 5 to 7 days, 4 melasma patients, observed in all the patients
Method: The efficacy of a preferred embodiment of the invention was tested in a clinical trial. An oil-in-water emulsion containing about 10% 4-diphenyl-2-hydroxytetronic acid was applied to various pigmented areas of the skin of 10 subjects twice daily. On normal pigmented skin types 2 and 3, visually apparent lightening was observed within 4 to 6 hours of application when compared to surrounding, untreated skin areas of the same subject. In another study, the hyperpigmented skin areas of 4 melasma patients were treated twice daily for 5 to 7 days.

With `O=C1OC(c2ccccc2)(c2ccccc2)C(O)=C1O` [4-diphenyl-2-hydroxytetronic acid, 3,4-dihydroxy-5-diphenyl-2(5H)-furanone] the “lightening of the pigmented lesions” value was “Significant lightening”.
